Assay [1] relates to full thickness skin incisions. The assay is described as follows: Wound tensile strength in rat full thickness dermal incisions. The format is in vivo, Wistar Furth rats. The procedure: Wistar Furth adult male rats (175-250g) were anesthetized by intraperitoneal injection of pentobarbital (60 mg/kg body weight). The rats dorsal area was closely shaved, and each animal was positioned and secured for surgery. Using aseptic technique, five full thickness skin incisions, 1.5 cm long, were made on the dorsal area. Each incision was treated with 0.05-0.10 ml of a blind sample of the peptide RRRRRRGDSPK-conjugated to hyaluronate or with 0.05-0.10 ml of human fibronectin (3 mg/ml in PBS, Colloborative Research, Bedford, Mass.) or rat fibronectin (2 mg/ml in PBS, Telios Pharmaceuticals, San Diego, Calif.) or was left untreated as a control. After treatment, the incisions were closed using standard 4-0 nylon sutures for placement of 5 to 7 interrupted sutures. The rats were returned to their cages for recovery and observation. At post operative days 2 through 7 and 10, six animals were anesthetized as above and were euthanized by an intracardiac injection of 0.5 cc of T-61.
Following euthanasia, the pelt was removed from the rat and 5 mm wide by 2 cm long skin strips bisecting incisions were prepared. Histological specimens from the skin adjacent to the tensile strength strip were also taken. To measure tensile strength, one end of the strip was clipped using a 1 mm Michel Clipper (Militex Instruments Co.) which was tied to a Grass model FTO3C force displacement transducer. The other end of the strip was clipped using a light weight hemostat which was attached to a Harvard Model 901 push-pull infusion pump (Harvard Instruments, Millis, Mass.) using cotton thread over a pulley. The transducer was attached to a Grass polygraph (Model 7D) for recording the results. After calibration, the pump was turned on to pull at the rate of 64 mm/min. The amount of force required to pull the skin apart at the incision was recorded on the polygraph.

Assay [2] concerns PVA sponges implanted under the skin. The assay is described as follows: Polyvinylalcohol sponge implant model. It is filed as in vivo, rats. The procedure: Peptide-hyaluronate conjugates were tested using the model of Davidson, et al., J. Cell Biol. 100: 1219-1227 (1985), which is incorporated herein by reference. This model involves the implantation of inert PVA sponges loaded with the conjugates or control materials under the skin of rats. The sponges were removed from the animals at 4 to 10 days after implantation and analyzed for cell ingrowth number and type and as collagen content, blood vessel formation (angiogenesis) and inflammatory response, as well as persistence of the conjugate in the wound.

The subject of the next assay is dry eye condition. The assay is described as follows: Dry eye syndrome induced by excision of tear ducts. The format is in vivo. The note with it: cats; eye drops from day 17 to day 43; conjugate at 100 mg/ml. As for the experimental part: The dry eye conditon was induced in six cats on day zero by the excision of tear ducts from the eyes. The cats were divided into two groups and treated as follows:
Group one was treated with two drops of human fibronectin, 3 mg/ml, a day twice a day from day 17 to day 34, and two drops a day three times a day from day 34 to 43. Group two was treated with two drops of chondroitin sulfate-peptide conjugate, G(dR)5 G3 (dR)GDSPASSK 100 mg/ml, a day twice a day from days 17 to 34, and two drops a day three times a day from day 34 to day 43.

A short description of assay [3]: In vitro assays of the type described in Pierschbacher et al. (1983). The format is cell-based.
The mark [4] stands for this setting: early time points, effect diminishing at later time points.

This is an account of results in patent US5955578A, “Polypeptide-polymer conjugates active in wound healing” (La Jolla Cancer Research Foundation, priority 1995, dated 1999).

Where no end group is shown, it is not given here. [ ]: non-standard residue; d: D form.

In the case of “RRRRRRGDSPK-conjugated to hyaluronate: peptide RRRRRRGDSPK coupled to hyaluronic acid by EDC, method of Example II (also: conjugated to hyaluronic acid by EDC)”, the “wound strength, % of the strength of untreated wounds” value in assay [1] (day 5 after incision (maximum effect), 0.05-0.10 ml per incision) is on record as 211%. Also, in assay [1] (days 3 through 7 after incision), the “wound strength versus untreated control” value is “increased”. Further, in assay [2] (setting [4]), the angiogenesis entry is listed as “increased”, the collagen secretion result was “increased” and the fibroblast migration result is listed as “increased”. For the same substance, the “collagen deposition into the sponges versus control sponges” value in assay [2] (up to the end of the experiment) is on record as “more collagen was continuously deposited”.
With “chondroitin sulfate-peptide conjugate: peptide of Example I, G(dR)5G3(dR)GDSPASSK, coupled to chondroitin sulfate with EDC; 74 mg peptide/g conjugate (G[dR][dR][dR][dR][dR]GGG[dR]GDSPASSK; also: coupled to chondroitin sulfate with EDC)”, the “dry eye condition (impression cytology, rose bengal staining)” value in the assay on dry eye condition is given as “marked reduction of the dry eye condition”.
For the substance “conjugates employing the peptide G(dR)5 G3 (dR)GDSPASSK: peptide G(dR)5G3(dR)GDSPASSK coupled to hyaluronic acid with EDC, 20 to 30% peptide by weight (G[dR][dR][dR][dR][dR]GGG[dR]GDSPASSK; also: coupled to hyaluronic acid with EDC)”, the “wound strength, % of control” value in assay [1] (day 2) was 160%. For the same substance, the “wound strength activity versus control (persistence)” value in assay [1] (through day 10) is “greater than control”. In assay [3], the “in vitro activity compared with the conjugate of Example V” value is recorded as “more activity than the RGGDSPK peptide conjugate”.
